Test results published in ChEMBL document CHEMBL1147781, “Design, synthesis and in vitro antimalarial activity of an acylhydrazone library” (Bioorg Med Chem Lett, 2006).

System: Plasmodium falciparum
Assay: Growth inhibition of chloroquine-resistant Plasmodium falciparum FcB1 at 1 uM
Assay type: functional

Row | Compound | inhibition at 1 µM [%]
1 | COc1ccc(O)c(/C=N/NC(=O)Cc2ccccc2)c1 | 45
2 | CCN(CC)c1ccc(/C=N/NC(=O)c2ccc(O)cc2)c(O)c1 | 12
3 | O=C(N/N=C/c1cc(Br)ccc1O)c1cccs1 | 38
4 | CCN(CC)c1ccc(/C=N/NC(=O)c2ccc(Cl)cc2)c(O)c1 | 45
5 | COc1ccc(C(=O)N/N=C/c2cc(Br)ccc2O)cc1 | 29
6 | COc1cccc(/C=N/NC(C)=O)c1O | 33
7 | COc1ccc(C(=O)N/N=C/c2ccc(OC)cc2O)cc1 | 9
8 | CC(=O)N/N=C/c1cc(C(C)(C)C)ccc1O | 32
9 | Cc1ccc(O)c(/C=N/NC(=O)c2ccccc2)c1 | 49
10 | COc1ccc(C(=O)N/N=C/c2cccc(O)c2O)cc1 | 21
11 | O=C(N/N=C/c1ccccc1O)c1ccco1 | 21
12 | COc1ccc(/C=N/NC(=O)c2ccc([N+](=O)[O-])cc2)c(O)c1 | 45
13 | COc1cccc(/C=N/NC(=O)c2ccc([N+](=O)[O-])cc2)c1O | 32
14 | O=C(N/N=C/c1cc(O)ccc1O)c1cccnc1 | 7
15 | COc1ccc(O)c(/C=N/NC(=O)c2ccco2)c1 | 33
16 | COc1ccc(C(=O)N/N=C/c2cc(O)ccc2O)cc1 | 39
17 | CC(C)(C)c1ccc(C(=O)N/N=C/c2cc(O)ccc2O)cc1 | 38
18 | COc1ccc(C(=O)N/N=C/c2cc(C)ccc2O)cc1 | 28
19 | O=C(N/N=C/c1cc([N+](=O)[O-])ccc1O)c1ccco1 | 16
20 | O=C(N/N=C/c1cc([N+](=O)[O-])ccc1O)c1ccncc1 | 15
21 | O=C(N/N=C/c1cc(Br)ccc1O)c1ccncc1 | 29
22 | COc1ccc(O)c(/C=N/NC(=O)c2ccncc2)c1 | 34
23 | COc1ccc(O)c(/C=N/NC(=O)c2ccccc2)c1 | 38
24 | O=C(N/N=C/c1cc(O)ccc1O)c1ccncc1 | 26
25 | O=C(N/N=C/c1cc(O)ccc1O)c1cccs1 | 19

Row | Compound | inhibition at 1 µM [%]
26 | COc1ccc(O)c(/C=N/NC(C)=O)c1 | 3
27 | COc1ccc(O)c(/C=N/NC(=O)c2ccc(C(C)(C)C)cc2)c1 | 47
28 | O=C(N/N=C/c1cc([N+](=O)[O-])ccc1O)c1cccs1 | 21
29 | CC(C)(C)c1ccc(O)c(/C=N/NC(=O)c2ccc(O)cc2)c1 | 31
30 | O=C(N/N=C/c1cc([N+](=O)[O-])ccc1O)c1cccnc1 | 19
31 | O=C(N/N=C/c1cc(O)ccc1O)c1ccccc1 | 0
32 | COc1ccc(O)c(/C=N/NC(=O)c2ccc([N+](=O)[O-])cc2)c1 | 14
33 | CCN(CC)c1ccc(/C=N/NC(=O)c2cccnc2)c(O)c1 | 2
34 | O=C(N/N=C/c1cc(Br)ccc1O)c1ccc(O)cc1 | 10
35 | CCN(CC)c1ccc(/C=N/NC(=O)c2cccs2)c(O)c1 | 37
36 | CC(=O)N/N=C/c1cc([N+](=O)[O-])ccc1O | 22
37 | COc1ccc(O)c(/C=N/NC(=O)c2ccc(Cl)cc2)c1 | 24
38 | CC(C)(C)c1ccc(O)c(/C=N/NC(=O)c2cccnc2)c1 | 32
39 | CCN(CC)c1ccc(/C=N/NC(=O)c2ccc(OC)cc2)c(O)c1 | 39
40 | Cc1ccc(O)c(/C=N/NC(=O)c2ccncc2)c1 | 8
41 | COc1ccc(O)c(/C=N/NC(=O)c2cccs2)c1 | 24
42 | Cc1ccc(O)c(/C=N/NC(=O)c2cccnc2)c1 | 33
43 | COc1ccc(/C=N/NC(=O)c2ccc(O)cc2)c(O)c1 | 14
44 | O=C(Cc1ccccc1)N/N=C/c1cc(O)ccc1O | 4
45 | COc1ccc(/C=N/NC(C)=O)c(O)c1 | 4
46 | COc1ccc(/C=N/NC(=O)c2ccco2)c(O)c1 | 45
47 | O=C(N/N=C/c1cc(Br)ccc1O)c1ccc(Cl)cc1 | 36
48 | CCN(CC)c1ccc(/C=N/NC(=O)c2ccco2)c(O)c1 | 23
49 | COc1ccc(/C=N/NC(=O)c2ccncc2)c(O)c1 | 35
50 | CCN(CC)c1ccc(/C=N/NC(C)=O)c(O)c1 | 34

Row | Compound | inhibition at 1 µM [%]
51 | CC(=O)N/N=C/c1cccc(O)c1O | 29
52 | COc1cccc(/C=N/NC(=O)c2ccco2)c1O | 41
53 | COc1ccc(O)c(/C=N/NC(=O)c2cccnc2)c1 | 24
54 | Cc1ccc(O)c(/C=N/NC(=O)c2cccs2)c1 | 23
55 | CC(=O)N/N=C/c1cc(C)ccc1O | 32
56 | COc1cccc(/C=N/NC(=O)c2ccc(Cl)cc2)c1O | 36
57 | CC(=O)N/N=C/c1cc(Br)ccc1O | 17
58 | CC(C)(C)c1ccc(C(=O)N/N=C/c2cc([N+](=O)[O-])ccc2O)cc1 | 36
59 | O=C(N/N=C/c1cccc(O)c1O)c1cccs1 | 29
60 | COc1cccc(/C=N/NC(=O)Cc2ccccc2)c1O | 30
61 | O=C(N/N=C/c1ccc(O)cc1O)c1ccc([N+](=O)[O-])cc1 | 18
62 | COc1cccc(/C=N/NC(=O)c2ccc(C(C)(C)C)cc2)c1O | 39
63 | COc1cccc(/C=N/NC(=O)c2cccs2)c1O | 16
64 | O=C(N/N=C/c1cc(O)ccc1O)c1ccco1 | 21
65 | COc1ccc(C(=O)N/N=C/c2cc([N+](=O)[O-])ccc2O)cc1 | 26
66 | COc1ccc(/C=N/NC(=O)c2cccs2)c(O)c1 | 24
67 | O=C(N/N=C/c1cc(O)ccc1O)c1ccc([N+](=O)[O-])cc1 | 28
68 | Cc1ccc(O)c(/C=N/NC(=O)c2ccc(O)cc2)c1 | 24
69 | COc1cccc(/C=N/NC(=O)c2ccc(O)cc2)c1O | 16
70 | O=C(N/N=C/c1cc(Br)ccc1O)c1cccnc1 | 21
71 | CC(C)(C)c1ccc(C(=O)N/N=C/c2cccc(O)c2O)cc1 | 41
72 | COc1ccc(/C=N/NC(=O)Cc2ccccc2)c(O)c1 | 41
73 | COc1cccc(/C=N/NC(=O)c2ccccc2)c1O | 10
74 | O=C(N/N=C/c1cccc(O)c1O)c1ccc(O)cc1 | 20
75 | O=C(N/N=C/c1ccc(O)cc1O)c1cccs1 | 13

Row | Compound | inhibition at 1 µM [%]
76 | O=C(N/N=C/c1ccc(O)cc1O)c1ccc(O)cc1 | 15
77 | O=C(N/N=C/c1cc([N+](=O)[O-])ccc1O)c1ccc([N+](=O)[O-])cc1 | 31
78 | COc1cccc(/C=N/NC(=O)c2ccncc2)c1O | 43
79 | O=C(N/N=C/c1cccc(O)c1O)c1ccc([N+](=O)[O-])cc1 | 24
80 | O=C(N/N=C/c1ccc(O)cc1O)c1cccnc1 | 23
81 | O=C(N/N=C/c1cc(O)ccc1O)c1ccc(Cl)cc1 | 25
82 | Cc1ccc(O)c(/C=N/NC(=O)c2ccco2)c1 | 37
83 | Cc1ccc(O)c(/C=N/NC(=O)Cc2ccccc2)c1 | 19
84 | O=C(N/N=C/c1ccccc1O)c1ccc([N+](=O)[O-])cc1 | 4
85 | Cc1ccc(O)c(/C=N/NC(=O)c2ccc([N+](=O)[O-])cc2)c1 | 46
86 | CC(C)(C)c1ccc(O)c(/C=N/NC(=O)c2ccncc2)c1 | 40
87 | COc1cccc(/C=N/NC(=O)c2cccnc2)c1O | 32
88 | O=C(N/N=C/c1cccc(O)c1O)c1ccccc1 | 30
89 | O=C(N/N=C/c1cccc(O)c1O)c1cccnc1 | 16
90 | COc1ccc(/C=N/NC(=O)c2ccccc2)c(O)c1 | 32
91 | COc1ccc(C(=O)N/N=C/c2ccc(O)cc2O)cc1 | 29
92 | O=C(N/N=C/c1cc([N+](=O)[O-])ccc1O)c1ccccc1 | 21
93 | COc1ccc(C(=O)N/N=C/c2cccc(OC)c2O)cc1 | 37
94 | O=C(N/N=C/c1ccc(O)cc1O)c1ccco1 | 13
95 | COc1ccc(C(=O)N/N=C/c2ccccc2O)cc1 | 14
96 | CC(C)(C)c1ccc(C(=O)N/N=C/c2ccc(O)cc2O)cc1 | 37
97 | CC(C)(C)c1ccc(C(=O)N/N=C/c2cc(C(C)(C)C)ccc2O)cc1 | 48
98 | O=C(Cc1ccccc1)N/N=C/c1cc([N+](=O)[O-])ccc1O | 0
99 | O=C(Cc1ccccc1)N/N=C/c1cc(Br)ccc1O | 33
100 | O=C(N/N=C/c1cc([N+](=O)[O-])ccc1O)c1ccc(O)cc1 | 4

Row | Compound | inhibition at 1 µM [%]
101 | CC(C)(C)c1ccc(O)c(/C=N/NC(=O)c2ccco2)c1 | 14
102 | O=C(N/N=C/c1cccc(O)c1O)c1ccco1 | 20
103 | CC(=O)N/N=C/c1ccccc1O | 0
104 | CCN(CC)c1ccc(/C=N/NC(=O)c2ccncc2)c(O)c1 | 18
105 | O=C(Cc1ccccc1)N/N=C/c1cccc(O)c1O | 19
106 | O=C(N/N=C/c1cc([N+](=O)[O-])ccc1O)c1ccc(Cl)cc1 | 31
107 | CC(=O)N/N=C/c1cc(O)ccc1O | 25
108 | COc1ccc(C(=O)N/N=C/c2cc(OC)ccc2O)cc1 | 18
109 | COc1ccc(/C=N/NC(=O)c2ccc(Cl)cc2)c(O)c1 | 8
110 | O=C(N/N=C/c1cccc(O)c1O)c1ccncc1 | 11
111 | O=C(N/N=C/c1cccc(O)c1O)c1ccc(Cl)cc1 | 13
112 | COc1ccc(O)c(/C=N/NC(=O)c2ccc(O)cc2)c1 | 20
113 | CC(C)(C)c1ccc(O)c(/C=N/NC(=O)Cc2ccccc2)c1 | 14
114 | COc1ccc(/C=N/NC(=O)c2ccc(C(C)(C)C)cc2)c(O)c1 | 43
115 | CC(C)(C)c1ccc(C(=O)N/N=C/c2ccccc2O)cc1 | 43
116 | O=C(N/N=C/c1cc(Br)ccc1O)c1ccco1 | 35
117 | O=C(N/N=C/c1cc(Br)ccc1O)c1ccccc1 | 47
118 | O=C(N/N=C/c1ccc(O)cc1O)c1ccc(Cl)cc1 | 16
119 | O=C(N/N=C/c1cc(O)ccc1O)c1ccc(O)cc1 | 4
120 | O=C(N/N=C/c1ccc(O)cc1O)c1ccccc1 | 14
121 | COc1ccc(/C=N/NC(=O)c2cccnc2)c(O)c1 | 38
122 | O=C(N/N=C/c1cc(Br)ccc1O)c1ccc([N+](=O)[O-])cc1 | 17
